Measurements reported in patent US4921871A, “Enolamides, pharmaceutical compositions and methods of use thereof for treating inflammation” (Warner-Lambert Company, priority 1987, dated 1990).

Biological target: T1, leukotriene receptor (Cavia porcellus, UniProt Q2NNR5)
T1 construct: Two pairs of lungs (1.3 g) from freshly sacrificed 300 g male guinea pigs; tissue Kuiper Rabbit Farm, Gary, Ind; (animals); host or cells: guinea pig lung, crude membranes
T1 sequence (Q2NNR5 1-340): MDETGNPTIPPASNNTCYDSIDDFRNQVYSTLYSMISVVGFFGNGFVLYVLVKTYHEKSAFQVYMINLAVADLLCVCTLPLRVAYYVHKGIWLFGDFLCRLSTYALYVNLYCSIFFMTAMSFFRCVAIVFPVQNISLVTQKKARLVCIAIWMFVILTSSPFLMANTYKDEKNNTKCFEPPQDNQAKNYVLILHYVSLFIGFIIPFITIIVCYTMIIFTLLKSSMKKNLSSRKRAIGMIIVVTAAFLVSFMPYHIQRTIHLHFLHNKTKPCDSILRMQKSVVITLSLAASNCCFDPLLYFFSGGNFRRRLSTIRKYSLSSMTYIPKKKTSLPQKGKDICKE
Assay: Binding of 3H-Leukotriene D4 to Guinea Pig Lung Membranes (RBL)
Details: 1.00 E -4 M
Protocol: Additionally, the activity, of the compounds having the Formula I of the present invention is determined by the well known leukotriene receptor binding assay that is described by R. F. Bruns, W. J. Thomsen and T. A. Pugsley in Life Sciences, 33, 645 (1983) or the Herxheimer in vivo antiallergy test described in H. Herxheimer, J. Physiol. (London), Vol. 177, p. 251 (1952).
[14,15-^3 H]leukotriene D4 (^3 H-LTD4) (25 Ci/mmol and 40 Ci/mmol) is purchased from New England Nuclear. Unlabeled LTC4 is a gift of Ono Pharmaceuticals (Japan). LTC4, LTD4, and LTE4 are purchased as methyl esters from Paesel GmbH (Frankfurt, W. Germany). Concentrations of the Paesel leukotrienes are calculated from their absorbance at 280 nm. Leukotriene esters are saponified overnight under N2 in 3.3% potassium carbonate at room temperature. Tritiated leukotrienes are stored as received from New England Nuclear at -20° C. Ono LTC4 (5 μg/ml) is stored at -60° C. in phosphate buffer pH - 6.8. Saponified Paesel leukotrienes are stored at -60° C. in 3.3% potassium carbonate (pH 9.0-9.5). Aliquots of leukotrienes are taken from stock solutions immediately after thawing, after which the stock solutions are immediately refrozen. 2-Amino-2-(hydroxymethyl)-1,3-propanediol (Tris) is Sigma pH 7.7 pre-set crystals, and dimethylsulfoxide is Aldrich Gold Label. Preparation of crude lung membranes
Two pairs of lungs (1.3 g) from freshly sacrificed 300 g male guinea pigs (older animals gave substantially lower binding) from Kuiper Rabbit Farm, Gary, Ind. are disrupted with a Polytron PT 10 (setting 4) for 30 seconds in 20 ml ice-cold 50 mM Tris adjusted with HCl to pH 7.7 at 25° C. (Tris buffer), filtered through a single layer of gauze to remove connective tissue, and centrifuged at 50,000 xg for ten min. The pellet is resuspended by homogenization with a Polytron in 20 ml Tris buffer, centrifuged at 50,000 xg for ten min., resuspended, incubated at 37° C. for 30 minutes, and centrifuged again. The final pellet is resuspended in Tris buffer and either used fresh or stored at -70° C.
All incubations are in triplicate for 60 minutes at 25° C. in 12×75 mm polystyrene tubes containing 1 ml Tris buffer with 20 mg original tissue wet weight of guinea pig lung membranes, 0.2 nM ^3 H-LTD4 (6,000-11,000 cpm), 10 mM MgCl2, and 1% dimethylsulfoxide. Leukotrienes are diluted in Tris buffer. All other test compounds dissolved at 10 mM in dimethylsulfoxide on the same day as the experiment, and diluted in dimethylsulfoxide to 100× the final incubation concentration. Control incubations receive an equal volume (10 μl) of dimethylsulfoxide; the resulting concentration of dimethylsulfoxide had no effect on binding. ^3 H-LTD4 is diluted to 2 nM in Tris buffer. The membrane suspension (20 mg/0.89 ml) contains sufficient MgCl2 to give 10 mM final concentration in the incubation. […] All additions are performed at 0° C. Immediately after the last addition, the incubation is initiated by agitating the rack of tubes on a vortex mixer and warming to 25° C. in a water bath. Tubes are vortexed at least once more during the incubation to ensure that the membranes remained suspended. Incubations are terminated after 60 minutes by filtering under reduced pressure through 25 mm Whatman GF/B filters followed by rapid washing three times with 4 ml of ice-cold Tris buffer. Filters are added to scintillation vials with 8 ml Formula 947 (New England Nuclear), left overnight, shaken, and the radioactivity counted in a scintillation counter (efficiency 40%). Nonspecific binding, defined as binding of ^3 H-LTD4 in the presence of 100 nM LTC4, is 300-500 cpm for all lots of ^3 H-LTD4. Binding to the filters in the absence of tissue is about 100 cpm, and is not affected by unlabeled LTC4. Specific binding, defined as total binding minus nonspecific binding, varied considerably from lot to lot of ^3 H-LTD4. […]

| SMILES | RBL, % Inhibition [%] |
| --- | --- |
| COc1c(C(=O)Nc2ccc(CCc3ccc(Cl)c(Cl)c3)cc2)sc2ccccc12 [Example 147, Benzo[b]thiophene-2-carboxamide, N-[4-[2-(3,4-dichlorophenyl)ethyl]phenyl]-3-methoxy] | 3.0 |
| O=C(Nc1ccc(CCc2ccc(Cl)c(Cl)c2)cc1)C(=O)c1sc2ccccc2c1O [Example 136, Benzo[b]thiophene-2-acetamide, N-[4-[2-(3,4-dichlorophenyl)ethyl]phenyl]-3-hydroxy-α-oxo] | 11.0 |
